Experiment: Cannabinoid stability in solution (time course incubation)
Type: physicochemical
Details: room temperature, shielded from light
Method: Rather, levels increased slightly in all treatments. The absence of any residual UGTs were cross-check and confirmed as the samples were purified by SPE, washed and eluted in 30% and 65%-100% ethanol, respectively.
Materials and Methods Example 19: Cannabinoid Stability in Solution.
The present inventors generated a stock solution of the CBD/CBDA+glycosides mixture in water which was further diluted 10× in all treatment solutions. A 10 mL starting volume was used for all treatments, and all treatments were prepared in triplicate. […] Each sample was incubated at room temperature. Samples were stored in 15 mL polypropylene centrifuge tubes. All samples were shielded from light—tubes were wrapped in aluminum foil. Each sample was prepared in triplicate in the following buffers: water only; pH=3; pH=4; pH=7; pH=8; water only+10 mM ascorbic acid; pH=3+10 mM ascorbic acid; pH=4+10 mM ascorbic acid; pH=7+10 mM ascorbic acid; and pH=8+10 mM ascorbic acid.

[1] = Water + AA (10 mM ascorbic acid)
[2] = pH = 3 + AA (10 mM ascorbic acid)
[3] = pH = 4 + AA (10 mM ascorbic acid)
[4] = pH = 7 + AA (10 mM ascorbic acid)
[5] = pH = 8 + AA (10 mM ascorbic acid)

Compound: C=C(C)[C@@H]1CCC(C)=C[C@H]1c1c(O)cc(CCCCC)cc1O [CBD, cannabidiol, reference compound]
- Day 0 concentration in solution [1]: 561.85 ± 86.83 µg/mL
- Day 0 concentration in solution (Water): 399.81 ± 111.06 µg/mL
- Day 0 concentration in solution [2]: 565.75 ± 40.96 µg/mL
- Day 0 concentration in solution (pH = 3): 568.71 ± 115.90 µg/mL
- Day 0 concentration in solution [3]: 524.40 ± 34.95 µg/mL
- Day 0 concentration in solution (pH = 4): 505.97 ± 5.10 µg/mL
- Day 0 concentration in solution [4]: 500.03 ± 21.45 µg/mL
- Day 0 concentration in solution (pH = 7): 528.04 ± 91.17 µg/mL
- Day 0 concentration in solution [5]: 1136.36 ± 996.36 µg/mL
- Day 0 concentration in solution (pH = 8): 513.35 ± 39.23 µg/mL
- Day 1 concentration in solution [1]: 428.63 ± 198.77 µg/mL
- Day 1 concentration in solution (Water): 629.00 ± 383.79 µg/mL
- Day 1 concentration in solution [2]: 650.49 ± 12.10 µg/mL
- Day 1 concentration in solution (pH = 3): 713.93 ± 41.47 µg/mL
- Day 1 concentration in solution [3]: 406.17 ± 210.69 µg/mL
- Day 1 concentration in solution (pH = 4): 380.77 ± 233.10 µg/mL
- Day 1 concentration in solution [4]: 505.88 ± 276.58 µg/mL
- Day 1 concentration in solution (pH = 7): 880.54 ± 5.87 µg/mL
- Day 1 concentration in solution [5]: 291.15 ± 78.65 µg/mL
- Day 1 concentration in solution (pH = 8): 747.61 ± 101.87 µg/mL
- Day 4 concentration in solution [1]: 182.66 ± 25.03 µg/mL
- Day 4 concentration in solution (Water): 432.54 ± 251.39 µg/mL
- Day 4 concentration in solution [2]: 232.39 ± 113.88 µg/mL
- Day 4 concentration in solution (pH = 3): 191.94 ± 55.68 µg/mL
- Day 4 concentration in solution [3]: 305.20 ± 97.35 µg/mL
- Day 4 concentration in solution (pH = 4): 278.33 ± 85.33 µg/mL
- Day 4 concentration in solution [4]: 398.16 ± 391.86 µg/mL
- Day 4 concentration in solution (pH = 7): 539.55 ± 260.69 µg/mL
- Day 4 concentration in solution [5]: 173.43 ± 17.53 µg/mL
- Day 4 concentration in solution (pH = 8): 560.90 ± 69.27 µg/mL
- Day 5 concentration in solution [1]: 448.64 ± 33.51 µg/mL
- Day 5 concentration in solution (Water): 466.09 ± 130.53 µg/mL
- Day 5 concentration in solution [2]: 320.48 ± 92.87 µg/mL
- Day 5 concentration in solution (pH = 3): 330.79 ± 138.28 µg/mL
- Day 5 concentration in solution [3]: 366.65 ± 92.35 µg/mL
- Day 5 concentration in solution (pH = 4): 510.50 ± 76.06 µg/mL
- Day 5 concentration in solution [4]: 353.25 ± 135.11 µg/mL
- Day 5 concentration in solution (pH = 7): 593.92 ± 6.30 µg/mL
- Day 5 concentration in solution [5]: 287.24 ± 39.56 µg/mL
- Day 5 concentration in solution (pH = 8): 498.21 ± 92.88 µg/mL
- Day 6 concentration in solution [1]: 957.17 ± 315.70 µg/mL
- Day 6 concentration in solution (Water): 179.13 ± 17.88 µg/mL
- Day 6 concentration in solution [2]: 801.14 ± 230.88 µg/mL
- Day 6 concentration in solution (pH = 3): 607.98 ± 416.07 µg/mL
- Day 6 concentration in solution [3]: 777.26 ± 56.02 µg/mL
- Day 6 concentration in solution (pH = 4): 897.52 ± 65.92 µg/mL
- Day 6 concentration in solution [4]: 828.02 ± 269.38 µg/mL
- Day 6 concentration in solution (pH = 7): 1115.01 ± 169.64 µg/mL
- Day 6 concentration in solution [5]: 847.26 ± 88.56 µg/mL
- Day 6 concentration in solution (pH = 8): 911.61 ± 84.17 µg/mL
- Day 7 concentration in solution [1]: 592.44 ± 87.97 µg/mL
- Day 7 concentration in solution (Water): 680.13 ± 229.24 µg/mL
- Day 7 concentration in solution [2]: 464.35 ± 105.43 µg/mL
- Day 7 concentration in solution (pH = 3): 563.80 ± 65.50 µg/mL
- Day 7 concentration in solution [3]: 557.34 ± 60.39 µg/mL
- Day 7 concentration in solution (pH = 4): 641.86 ± 33.49 µg/mL
- Day 7 concentration in solution [4]: 549.93 ± 39.69 µg/mL
- Day 7 concentration in solution (pH = 7): 544.28 ± 57.97 µg/mL
- Day 7 concentration in solution [5]: 630.99 ± 2.44 µg/mL
- Day 7 concentration in solution (pH = 8): 580.54 ± 94.41 µg/mL

— patent US11946059B2, “In vivo generation of water-soluble cannabinoids in plant cell suspension cultures” (Trait Biosciences Inc., priority 2017, dated 2024)
